These results are taken from US12653872B2, “Mimotopes of alpha-synuclein and vaccines thereof for the treatment of synucleinopathy” (AC Immune SA, priority 2008, dated 2026).

Assay [1] deals with recombinant human alpha-synuclein protein. In words: Mimotope-KLH vaccination of mice: serum titer against recombinant alpha-synuclein (ELISA). In kind it is in vivo, C57/Bl6 mice. To be noted: pooled sera after 4 vaccinations; FIG. 5B. The procedure: (§1) Inhibiting as well as non-inhibiting peptides were coupled to KLH and injected into mice (wildtype C57/Bl6 mice; subcutaneous injection into the flank) together with an appropriate adjuvant (aluminium hydroxide). Animals were vaccinated 4-6 times in biweekly intervals and sera were taken biweekly as well. Titers to injected peptides as well as to an irrelevant peptide were determined with every serum. Titers against the recombinant human alpha-synuclein protein and recombinant human beta-synuclein were determined starting with Serum 3 respectively. Pooled sera were tested against the original human alpha-synuclein epitope (aa115-122). In general sera were analysed by reaction against peptides coupled to Bovine Serum Albumin (BSA) and recombinant full length proteins which were immobilised on ELISA plates. Titers were determined using anti mouse IgG specific antibodies. For detailed results see FIGS. 4A, 4B, 5A and 5B.
(§2) Female C57/Bl6 mice, 5-6 mice per group, were subcutaneously immunized with 30 μg peptide coupled to KLH. Control groups were administered p4448-KLH conjugate. As adjuvant alum was used (always 1 mg per mouse). […] The in vitro ELISA assay to determine the antibody titer was performed with sera of single mice or pooled sera (see FIGS. 5A and 5B) after each vaccination in a two week interval (see FIGS. 4A, 4B, 5A and 5B, respectively). The wells of the ELISA plate were coated with mimotope-BSA conjugate and an irrelevant peptide-BSA conjugate (negative control). The positive control was performed by reaction of the parental antibody with the respective mimotope-BSA conjugate. The detection was performed with anti-mouse IgG. Additionally, recombinant proteins were immobilised on ELISA plates and sera reacted accordingly.
(In general: In an ELISA, binding on a coated surface is turned into a signal by an enzyme label.)

The subject of assay [2] is monoclonal antibody specific for human alpha-synuclein at position 115-122 (AFFiRiS3/9, A509). In words: In vitro inhibition assay (ELISA): peptide competes with binding of the antibody to the coated original epitope. On the set-up: species or system mouse. The note with it: competition code; OD at 40 μg peptide compared to original peptide. The procedure: 2. In Vitro Inhibition Assay (ELISA)
Different amounts of peptides (concentrations ranging from 40 μg to 0.3 μg (serial dilutions), as indicated in the respective figures) derived from Phage Display were incubated with the monoclonal antibody that was used for the screening procedure. Peptides diminishing subsequent binding of the antibody to the original human alpha-synuclein epitope (amino acids: 115-122 of human alpha-synuclein protein) coated on ELISA plates were considered as inhibiting in this assay.
Weak inhibition means more peptide is required to lower AB binding than with the original epitope; strong inhibition means similar peptide amounts are required for mimotope and original epitope for lowering AB binding. Mimotopes are compared to the original peptide as standard. OD at 40 μg peptide used in the assay is used to calculate the competition capacity compared to original peptide.

The next assay concerns irrelevant peptide p1253. In words: Mimotope-KLH vaccination of mice: serum titer against irrelevant peptide (ELISA). It counts as in vivo. The note with it: C57/Bl6 mice, alum. How it is done: as §1, §2
Assay [3] concerns injected peptide (peptide-BSA conjugate). The experiment in a line: Mimotope-KLH vaccination of mice: serum titer against injected peptide (ELISA). The note with it: for immune response against injected peptide: C57/Bl6 mice, 30 μg peptide-KLH s.c., alum, repeated vaccination; for titers upon vaccination of mice: FIG. 2 legend. It counts as in vivo, C57/Bl6 mice. How it is done: as §1, §2

Assay [4] concerns monoclonal antibody specific for human alpha-synuclein at position 115-122 (AFFiRiS3/9, A509). The experiment in a line: In vitro binding assay (ELISA): peptide-BSA on plate, incubated with the screening monoclonal antibody. Set-up: species or system mouse. To be noted: FIG. 1 and FIG. 2. From the text:
1. In Vitro Binding Assay (ELISA)

In assay [5] the test system is human a-syn on brain sections of mice overexpressing human a-syn. In words: In situ testing: immunohistochemistry with mimotope-induced sera on mouse brain sections. To be noted: for potential to induce a-syn specific antibodies: vaccines based on the peptide. How it is done:
Selected sera eliciting an a-syn cross reactivity were also tested for the ability to detect human a-syn on mouse brain sections in situ. For detailed results see FIGS. 6A, 6B and 6C.
Mimotopes eliciting an a-syn specific immune response can also detect a-syn immunoreactive inclusions in transgenic mouse brain tissue. As depicted in FIGS. 6A, 6B and 6C, sera derived from mimotope vaccinated animals are able to stain a-syn positive structures present on mouse brain sections from animals overexpressing human a-syn. Briefly, sera positive for human a-syn reactivity in ELISA have been used for immunohistochemistry (IHC). Paraffin embedded […] sections of mouse brain, mounted on Superfrost Plus glass slides, were subjected to IHC. Sections were incubated with sera (dilution 1:100 and 1:400 in PBS) and subsequently stained according to standard protocols for immunohistochemistry using VECTASTAIN™ ABC Systems (which is an Avidin-Biotin Complex Immunohistochemical Staining Kit from Vector Laboratories), DAB and MOM blocking (all reactions have been performed using commercially available reagents obtained from Vector labs respectively and have been performed according to manufacturer's protocols). Counterstaining was performed with Haematoxylin. Slides were mounted in Entellan and subsequently documented using conventional brightfield microscopy. A monoclonal antibody specific for human a-syn (LB509, Covance) has been used as a positive control for synuclein detection at a final dilution of 1/250.

In assay [6] the test system is recombinant human beta-synuclein. In words: Mimotope-KLH vaccination of mice: serum titer against recombinant beta-synuclein (ELISA). It counts as in vivo, C57/Bl6 mice. To be noted: pooled sera after 4 vaccinations, FIG. 5B. How it is done:
as §1, §2

Bounds are passed on as bounds.

As to CDMPVLPDN [p4463], in assay [1], the “reactivity of induced sera with alpha-synuclein” value is “show titers against alpha-synuclein”. Also, in assay [2], the Inhibition is 2 (strong inhibition (as original epitope; OD of 40 μg peptide below 2 times of original peptide)).
With CDTPVLAEN [p4467], the “immune response against unrelated sequence p1253” value in the assay with irrelevant peptide p1253 is recorded as “failed to induce an unspecific immune response”. Besides, in assay [3], the “immune response against injected peptide” value was “elicited immune responses against the injected peptide”.
As for CDRPVAPEG [p4553], the “titers upon vaccination of mice” value in assay [3] is recorded as > 1/20000. The “binding to / detection by the monoclonal antibody in ELISA” value (“binding to / detection” below) in assay [4] was “strong binding”.
For CDQPVLPD [p4456], the “immune response against unrelated sequence p1253” value with irrelevant peptide p1253 is reported as “failed to induce an unspecific immune response”. Besides, in assay [3], the “immune response against injected peptide” value is “elicited immune responses against the injected peptide”. Also, the “potential to induce a-syn specific antibodies” value (“potential” for short) in assay [5] is reported as “potential to induce a-syn specific antibodies”.
Regarding CDMPVDPDN [p4448, reference compound], in assay [1], the “reactivity of induced sera with alpha-synuclein” value is on record as “show titers against alpha-synuclein”. Further, the “immune response against unrelated sequence p1253” value in the assay on irrelevant peptide p1253 was “failed to induce an unspecific immune response”. For the same sequence, the “reactivity of induced sera with beta-synuclein” value in assay [6] was “detect alpha and beta-synuclein”; in assay [6] (listed as original epitope) it was “also detected the full length beta-synuclein protein”. In addition, the “immune response against injected peptide” value in assay [3] is reported as “elicited immune responses against the injected peptide”. For the same sequence, the “binding to / detection” value in assay [4] is on record as “are detected by the antibody”.
As to CDSPVWAEN [p4466], the “immune response against unrelated sequence p1253” value in the assay on irrelevant peptide p1253 was “failed to induce an unspecific immune response”. Moreover, the “immune response against injected peptide” value in assay [3] is on record as “elicited immune responses against the injected peptide”.
On to CDMPVLPD [p4457], for which the “reactivity of induced sera with alpha-synuclein” value in assay [1] is reported as “show titers against alpha-synuclein”.
Regarding CDMPVTPDT [p4562], the “potential” value in assay [5] was “potential to induce a-syn specific antibodies”. For the same sequence, the Inhibition in assay [2] is reported as 2 (strong inhibition (as original epitope; OD of 40 μg peptide below 2 times of original peptide)).
Turning to DMPVDPDN, the “reactivity of induced sera with beta-synuclein” value in assay [6] is “did not distinguish between the two recombinant synuclein proteins”.
In the case of CDSPVLPDG [p4498], the “a-syn staining by induced serum in immunohistochemistry” value in assay [5] (murine hippocampus, human a-syn transgenic, sera diluted 1:100 and 1:400, FIG. 6C) is recorded as “specific a-syn staining similar to the staining present in FIG. 6A”. Moreover, in assay [5], the “potential” value is on record as “potential to induce a-syn specific antibodies”. In addition, in assay [2], the Inhibition is 1 (Weaker than original epitope (OD of 40 μg peptide below 5 times of original peptide)).
In the case of DMPVDPDNC [p4449], the “binding to / detection” value in assay [4] is on record as “are detected by the antibody”.
For CDQPVYPDI [p4557], the “titers upon vaccination of mice” value in assay [3] is listed as > 1/20000. For the same sequence, the “binding to / detection” value in assay [4] is given as “weaker binding than the original peptide p4448”. For the same sequence, in assay [2], the Inhibition is on record as 1 (Weaker than original epitope (OD of 40 μg peptide below 5 times of original peptide)).
